This passage reports Ki results from ChEMBL document CHEMBL1157846, “Synthesis and theoretical studies on energetics of novel N- and O- perfluoroalkyl triazole tagged thienopyrimidines--their potential as adenosine receptor ligands” (Eur J Med Chem, 2010).

One assay has as its target Adenosine receptor A2a (Rattus norvegicus, UniProt P30543).
A further assay addresses T1, Adenosine receptor A1 (Rattus norvegicus, UniProt P25099).
T1 sequence (P25099 whole entry): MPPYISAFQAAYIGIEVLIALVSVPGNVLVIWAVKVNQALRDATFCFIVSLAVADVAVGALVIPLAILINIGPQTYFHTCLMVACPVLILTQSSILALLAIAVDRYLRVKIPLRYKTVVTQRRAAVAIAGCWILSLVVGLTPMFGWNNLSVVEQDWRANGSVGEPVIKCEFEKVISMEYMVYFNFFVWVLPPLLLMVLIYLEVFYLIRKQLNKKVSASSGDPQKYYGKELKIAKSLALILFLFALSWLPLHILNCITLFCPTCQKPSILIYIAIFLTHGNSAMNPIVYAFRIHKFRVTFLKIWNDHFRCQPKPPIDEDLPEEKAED

Adenosine receptor A2a, sequence (P30543 whole entry): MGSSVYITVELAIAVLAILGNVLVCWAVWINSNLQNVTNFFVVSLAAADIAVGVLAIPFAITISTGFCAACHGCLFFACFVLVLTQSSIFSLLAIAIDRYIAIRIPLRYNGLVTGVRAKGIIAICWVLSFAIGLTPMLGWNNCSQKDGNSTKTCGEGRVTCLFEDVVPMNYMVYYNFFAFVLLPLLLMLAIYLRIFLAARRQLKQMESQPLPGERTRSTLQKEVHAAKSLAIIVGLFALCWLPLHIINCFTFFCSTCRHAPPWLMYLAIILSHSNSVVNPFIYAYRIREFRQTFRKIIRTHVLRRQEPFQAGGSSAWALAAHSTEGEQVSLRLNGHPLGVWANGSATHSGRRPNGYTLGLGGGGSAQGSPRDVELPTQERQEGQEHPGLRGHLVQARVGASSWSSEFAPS
Description for Adenosine receptor A1: Displacement of [3H]CCPA from adenosine A1 receptor in rat brain cortical membrane after 90 mins by scintillation counting
Description for Adenosine receptor A2a: Displacement of [3H]MSX-2 from adenosine A2A receptor in rat brain striatal membrane after 30 mins by scintillation counting

`C#CCn1c(C)nc2sc3c(c2c1=O)CCCC3` registered a Ki on Adenosine receptor A2a of 7 nM. The same measure, in the same setting: the value for `C#CCOc1nc(-c2ccccc2)nc2sc3c(c12)CCCC3` was 3 nM.

Take `C#CCn1c(-c2ccccc2)nc2sc3c(c2c1=O)CCC3`: the inhibition constant (Ki) turned out to be 5 nM at Adenosine receptor A1 and 9700 nM at Adenosine receptor A2a.

As for `C#CCn1c(Cc2ccc(F)cc2)nc2sc3c(c2c1=O)CCCC3`, the Ki at Adenosine receptor A1 amounted to 21 nM; on Adenosine receptor A2a, 14 nM. `C#CCn1c(Cc2ccc(F)cc2)nc2sc(C)c(C)c2c1=O`: the Ki at Adenosine receptor A1 was found to be 4 nM; at Adenosine receptor A2a it was 7620 nM. On to `C#CCn1c(-c2ccccc2)nc2sc(C)c(C)c2c1=O`, for which, on Adenosine receptor A2a, the Ki came to 29 nM. In the case of `C#CCn1c(C)nc2sc(C)c(C)c2c1=O`, the Ki on Adenosine receptor A1 turned out to be 6 nM; at Adenosine receptor A2a, 3790 nM. As for `C#CCn1c(C)nc2sc3c(c2c1=O)CCC3`, the inhibition constant (Ki) was found to be 6 nM on Adenosine receptor A1 and 18 nM at Adenosine receptor A2a.
